Source: the SangsterLogP compilation

Assay: method code SF, from Hansch, C. & Leo, A. (1987). Log P database [Dataset]. Pomona College Medicinal Chemistry Project.

| SMILES | logP | further results |
| --- | --- | --- |
| CC(C)N(Cc1cccnc1)C(C)C |  | logD (pH 11.0): 2.27 |
| CNN=CCCc1ccccc1 |  | logD (pH 7.4): 1 |
| CC(=O)Nc1ccccc1C#N | 0.57 |  |
| CCCc1ccc2c(c1)C(=O)c1ccc(NC(C)=O)cc1S2(=O)=O | 3.51 |  |
| CC(=O)Nc1ccc2c(=O)c(C)c(C)oc2c1[N+](=O)[O-] | 1.61 |  |
| c1cnc2ncncc2n1 | -0.58 |  |
| CC(C)C1OC(=O)c2ccccc21 (stereo not given) | 2.1 |  |
| CC(C)=NO | 0.12 |  |
| COc1cc(C=NOC(=O)COc2ccccc2)ccc1OCCO | 2.1 |  |
| CC(=O)Nc1ccc2c(c1)S(=O)(=O)c1ccc(C)cc1C2=O | 2.76 |  |
| C=CCn1c(=O)c(N(C)C)c(C)n(-c2ccccc2)c1=O |  | logD (pH 7.4): 1.98 |
| O=C(O)CS | 0.09 |  |
| COC1C=COC2(C)Oc3c(C)c(O)c4c(O)c(c(/C=N\N5CCCCCCCCCC5)c(O)c4c3C2=O)NC(=O)/C(C)=C\C=C/C(C)C(O)C(C)C(O)C(C)C(OC(C)=O)C1C (stereo not given) | 4.05 |  |
| Nc1ccc2ccccc2c1S(=O)(=O)O | -1.16 |  |
| CS(=O)(=O)F |  | logD (pH 1.0): 0.55 |
| O=[N+]([O-])c1ccc(C=Cc2nccn2Cc2ccncc2)o1 | 1.67 |  |
| O=Cc1ccc([N+](=O)[O-])cc1 |  | logD (pH 7.0): 1.56 |
| Brc1ccccn1 | 1.42 |  |
| CCCCC1CC(C(=O)NC(C(C)O)C2OC(SC)C(O)C(O)C2O)N(CC)C1 (stereo not given) |  | logD (pH 12.0): 1.76 |
| COC(=O)C=Cc1ccccc1 | 2.62 |  |
| CN(C)c1ncnc2sccc12 | 1.82 |  |
| CC1CCCC1 | 3.37 |  |
| CCNC(=O)Nc1ccccc1 | 1.64 |  |
| OC(c1ccccc1)C1CCCCN1 (stereo not given) | 1.28 |  |
| CCOC(=O)C(F)(F)C(F)(F)F | 2.12 |  |
| CCC1(CC)OC(=O)c2ccccc21 | 2.69 |  |

| SMILES | logP | further results |
| --- | --- | --- |
| CC(=O)C(=Cc1ccc(Br)cc1)C(C)=O | 2.75 |  |
| COc1cc(C=NO)ccc1OCCOC(=O)c1cccc(Cl)c1 | 3.94 |  |
| c1ccc2[nH]c(CCCCc3nc4ccccc4[nH]3)nc2c1 | 1.59 |  |
| O=C(COc1ccccc1)N1CCCCC1 | 1.81 |  |
| O=S1(=O)NC(C2CC=CC2)=Nc2ccccc21 | 1.53 |  |
| CN(C)/N=N/c1cccc([N+](=O)[O-])c1 | 2.75 |  |
| NC(=S)N/N=C/c1ccc(O)cn1 |  | logD (pH 7.4): 0.69 |
| COP(N)(=O)Oc1cc(Cl)c(Cl)cc1Cl (stereo not given) | 2.53 |  |
| CC1=Nc2ccc(S(=O)(=O)N(C)C)cc2S(=O)(=O)N1 | 0.32 |  |
| COc1ccc(-c2ncc[nH]2)c(OC)c1 | 1.72 |  |
| CCCCC1OC(=O)c2cc([N+](=O)[O-])ccc21 (stereo not given) | 2.92 |  |
| O=c1[nH]c2ccccc2o1 | 1.16 |  |
| O=C(Cc1ccccc1)Nc1ccc(Cl)c(Cl)c1 | 4.47 |  |
| C=CCNC(=O)NCC=C | 0.64 |  |
| CN(C)c1ccc([N+]([O-])=NC#N)cc1 | 2.3 |  |
| CC(=C(C#N)C#N)c1ccccc1 | 2.1 |  |
| CCCCOC1NC(=O)NC(=O)C1=[N+]=[N-] (stereo not given) | -0.55 |  |
| NC(=O)c1cccc(O)c1 | 0.39 |  |
| Fc1c(F)c(F)c(F)c(F)c1F | 2.22 |  |
| CN1CCC(CN2c3ccccc3Sc3ccccc32)C1 (stereo not given) |  | logD (pH 8.7): 3.87 |
| CC(N)=S | -0.26 |  |
| O=C(O)CCCc1c[nH]c2ccccc12 | 2.3 |  |
| CCOc1cccc(NC(C)=O)c1 |  | logD (pH 7.0): 1.82 |
| CCCOc1cccc(C=C(C(=O)OCC)C(=O)OCC)c1 | 4 |  |
| CC(C)COCC1CNc2nc(N)[nH]c(=O)c2N1 (stereo not given) |  | logD (pH 7.4): 0.45 |
| CN(C)C(=O)Nc1ccc(Br)cc1 | 2.19 |  |

| SMILES | logP | further results |
| --- | --- | --- |
| O=C(c1ccccc1)c1cccnc1 |  | logD (pH 8.0): 1.88 |
| CC1=Nc2c(Br)cc(Cl)cc2S(=O)(=O)N1 | 1.65 |  |
| CCC1(c2ccccc2)CCC(=O)NC1=O (stereo not given) | 1.9 |  |
| COc1ccccc1C=C(C(C)=O)C(C)=O | 1.73 |  |
| CC(C)(O)C(F)(F)F | 1.04 |  |
| CCCCCC(=O)Nc1ccccc1 | 3.28 |  |
| CC(=O)OC[C@H]1O[C@@H](NC(=O)N(CCCl)N=O)[C@H](OC(C)=O)[C@@H](OC(C)=O)[C@H]1OC(C)=O | 1.04 |  |
| O=C(O)c1ccccc1S |  | logD (pH 1.0): 2.39 |
| CCC1OC(=O)C(C)C(OC2CC(C)(OC)C(O)C(C)O2)C(C)C(OC2OC(C)CC(N(C)C)C2O)C(C)(O)CC(C)C(=O)C(C)C(OC(C)=O)C1C (stereo not given) | 3.32 |  |
| COc1ccc2cnccc2c1 | 2.22 |  |
| FC(F)F | 0.64 |  |
| CNP(=O)(OC)Oc1ccc(Cl)cc1 (stereo not given) | 1.85 |  |
| CO/N=C/CCc1ccccc1 |  | logD (pH 7.4): 2.14 |
| CN(C)CC(O)c1ccccc1 (stereo not given) |  | logD (pH 13.0): 1.54 |
| CC(C)Oc1cn[nH]c1 | 1.13 |  |
| CCOC(=O)C(=O)c1cccs1 | 1.77 |  |
| Clc1ccc2[nH]c(CCc3nc4cc(Cl)ccc4[nH]3)nc2c1 | 1.13 |  |
| FC(F)(F)c1cccc2cccnc12 | 2.5 |  |
| O=C(O)c1ccc[nH]1 |  | logD (pH 2.0): 0.85 |
| COc1cccc(C=C(C(C)=O)C(C)=O)c1 | 1.79 |  |
| CN(C)CCC1CN(C)C(=S)c2cccnc2O1 (stereo not given) | 1.08 |  |
| CCCCO[N+](=O)[O-] | 2.15 |  |
| NC(=O)Nc1cccc(NC(N)=O)c1 | 0.58 |  |
| COC(=O)c1ccc[nH]1 | 1.17 |  |
| COC(=O)c1c(C)n(C)c2c1c1c(O)c3c(O)c(C)c4c(c32)C(=O)C(C)(OC=CC(OC)C(C)C(OC(C)=O)C(C)C(O)C(C)C(O)C(C)C=CC=C(C)C(=O)N1)O4 (stereo not given) | 1.46 |  |
| c1cnc2[nH]ccc2c1 | 1.82 |  |

| SMILES | logP | further results |
| --- | --- | --- |
| C/N=C(\NC)NC#N | -0.4 |  |
| CC(=O)Oc1ccccc1[N+](=O)[O-] | 1.55 |  |
| CC(C)(C)c1ccc(C(N)=O)cc1 | 2.51 |  |
| C=C1C[C@]23C[C@@]1(O)CC[C@H]2[C@@]12C=C[C@H](O)[C@@](C)(C(=O)O1)[C@H]2[C@@H]3C(=O)O | 0.24 |  |
| CC12CCC(=O)C=C1CCC1C2CCC2(C)C1CCC21CCC(=O)O1 (stereo not given) |  | logD (pH 7.4): 2.75 |
| CCOC(=O)/C(=C/c1ccc(OC)c(OC)c1)C(C)=O | 2.02 |  |
| Cc1[nH]c(=O)[nH]c(=O)c1N(CCF)CCCl |  | logD (pH 7.4): 0.85 |
| N#CN=[N+]([O-])c1cccc(Cl)c1 | 2.4 |  |
| Nc1ccccc1O | 0.57 |  |
| CCC(C)C(=O)Nc1ccccc1 (stereo not given) | 2.56 |  |
| O=C(c1ccncc1)c1ccc(O)cc1 | 1.37 |  |
| COC(=O)C(=Cc1ccccc1)C(=O)OC | 2.24 |  |
| NC(=O)CF | -1.05 |  |
| COc1cc(C=NOC(=O)c2cc(OC)c(OC)c(OC)c2)ccc1OCCO | 2.7 |  |
| CCOC(=O)C(=Cc1ccc(O)c(OC)c1)C(=O)OCC | 2.89 |  |
| COc1cccc(C=C(C(N)=O)C(N)=O)c1 | 0.01 |  |
| O=c1cncc[nH]1 | -1.49 |  |
| CCOC(=O)CON=Cc1ccc(OCCOC(=O)c2ccccc2OC)c(OC)c1 | 3.27 |  |
| CC(=O)OC[C@@H](OC(C)=O)[C@@H](OC(C)=O)[C@H](OC(C)=O)[C@H](C=O)OC(C)=O | 0.63 |  |
| CCN(CC)c1ccc(/N=N/c2ccc(Br)cn2)c(O)c1 | 4.23 |  |
| CNC(=O)COc1ccccc1 | 1.02 |  |
| Cc1cccc(C(N)=O)c1 | 1.18 |  |
| CC(=O)c1cccc(F)c1 |  | logD (pH 7.0): 1.77 |
| COc1ccccc1OC | 1.79 |  |
| CCOC(=O)C(=Cc1cccc(Cl)c1)C(=O)OCC | 3.49 |  |
| CNc1nccn2cc(-c3ccc(S(C)=O)cc3OC)nc12 (stereo not given) | 1.88 |  |

| SMILES | logP | further results |
| --- | --- | --- |
| O=C1C[C@@H]2OCC=C3CN4CC[C@]56c7ccccc7N1[C@H]5[C@H]2[C@H]3C[C@H]46 | 1.93 |  |
| c1cncc([C@@H]2CCCCN2)c1 |  | logD (pH 11.0): 0.97 |
| O=c1cc(-c2ccc(O)cc2)oc2ccccc12 | 3.2 |  |
| O=C(Nc1ccccc1)c1cc(N2CC2)c([N+](=O)[O-])cc1[N+](=O)[O-] | 2.23 |  |
| c1ccc(CSc2nnc[nH]2)cc1 | 1.45 |  |
| NC(=O)CI | -0.19 |  |
| c1ccc(COc2ccccc2)cc1 | 3.79 |  |
| CC(=O)n1ccnc1 | -0.34 |  |
| O=S1(=O)N=C(C2CCCC2)Nc2ccccc21 | 1.83 |  |
| NC(=O)c1ccc(C(O)C(CO)NC(=O)C(Cl)Cl)cc1 (stereo not given) | -0.48 |  |
| CCC(C)NC(=O)/C(Br)=C\c1ccccc1 (stereo not given) | 3.56 |  |
| O=C(O)C(c1ccccc1)c1ccccc1 |  | logD (pH 1.0): 3.09 |
| Cc1ccc2cccnc2c1 | 2.47 |  |
| N#CC(Cl)(Cl)Cl | 2.09 |  |
| CC1=NS(=O)(=O)c2ccc(C(F)(F)F)cc2N1 | 1.59 |  |
| NC(=O)c1ccco1 |  | logD (pH 7.0): -0.11 |
| CN(C)C(=O)c1ccoc1 | 0.24 |  |
| COP(=O)(CC(C)=O)OC | 0.86 |  |
| c1cncc(CN2CCCC2)c1 |  | logD (pH 11.0): 1.1 |
| O=C(Nc1ccccc1)NC1CC(O)C(CO)OC1O (stereo not given) | -0.61 |  |
| Cn1ccc(=O)cc1 | -1.22 |  |
| OCCCC(F)(F)F | 0.9 |  |
| CN(C)C(=O)Oc1ccccc1 | 1.56 |  |
| O=C1CCN(c2ccccc2)N1 | 0.89 |  |
| C1OCOCO1 | -0.43 |  |
| O=C1CC(=O)c2ccccc21 | 0.61 |  |

| SMILES | logP | further results |
| --- | --- | --- |
| O=[N+]([O-])c1ccc(C=Cc2nccs2)o1 | 1.97 |  |
| NC(=O)CCl | -0.53 |  |
| Cc1nnc(C)s1 | 0.03 |  |
| O=C1CCCCC1 | 0.81 |  |
| O=C1C=CCCC1 | 0.61 |  |
| Cc1ccc(OC(=O)CNC(=O)c2ccccc2)cc1 | 2.83 |  |
| Cn1c(=O)cnc2ccccc21 | 0.79 |  |
| CC1OC(=O)c2ccccc21 (stereo not given) | 1.41 |  |
| O=C1C2(Cl)C3(Cl)C4(Cl)C(Cl)(Cl)C5(Cl)C3(Cl)C1(Cl)C5(Cl)C24Cl (stereo not given) | 5.41 |  |
| CNC(C)=O | -1.05 |  |
| c1ccc(-c2cccs2)cc1 | 3.74 |  |
| COC(=O)C[C@](O)(CCC(C)(C)O)C(=O)O[C@@H]1C(OC)=C[C@]23CCCN2CCc2cc4c(cc2[C@H]13)OCO4 | 0.65 |  |
| CC(=O)Nc1cn[nH]c1 | -0.38 |  |
| CN(C)C(=O)N(c1ccccc1)c1ccccc1 | 2.8 |  |
| CC(=O)c1ccc(C(C)=O)cc1 |  | logD (pH 7.0): 1.34 |
| CN(C)C#N | -0.15 |  |
| OCCOc1c(Br)cc(Br)cc1Br | 3.42 |  |
| O=c1cc(-c2ccccc2)oc2cc(O)ccc12 | 3.62 |  |
| Cc1ccc(C(N)=O)cc1 | 1.18 |  |
| CC(=O)C(=Cc1ccc(Cl)cc1)C(C)=O | 2.32 |  |
| CN(C)c1ccc(C(N)=O)cc1 | 1.14 |  |
| O=c1[nH]c(=O)n([C@H]2C[C@H](O)[C@@H](CO)O2)cc1Br | -0.29 |  |
| O=Nc1ccc(O)cc1 | 1.29 |  |
| CCCCOC(=O)c1cccc(C(=O)OCCCC)c1 | 4.26 |  |
| O=C1c2ccccc2-c2ccccc21 | 3.58 |  |
